Consider seven compounds from patent publication US6514989B1, “Aromatic and heteroaromatic substituted 1,2,4-triazolo pyridine derivatives” (Hoffmann-La Roche Inc., priority 2001, dated 2003).

The target in assay [1] is T1, human adenosine A2a receptor (Homo sapiens, UniProt P29274).
T1 construct: expressed in transfected cells; host or cells: CHO cells, semliki forest virus expression system; membrane preparation
Briefly: Human adenosine A2a receptor radioligand binding assay ([125I]-AB-MECA, CHO cell membranes). To be noted: for Selectivity A1/A2a: ratio obtained by dividing KiHA1 by KiHA2A; for pKi: recombinant human A2a receptor expressed in CHO cells, Ki from IC50 by Cheng-Prussoff equation, read-out: hA2a Ki. How it is done: Human Adenosine A2a Receptor
The gene encoding human adenosine A2a receptor was recombinantly introduced and expressed in chinese hamster ovary (CHO) cells using the semliki forest virus expression system. Cells were harvested, washed twice by centrifugation, homogenized and again washed by centrifugation. The final washed membrane pellet was suspended in a Tris (50 mM) buffer containing 120 mM NaCl, 5 mM KCl, 2 mM CaCl2 and 10 mM MgCl2 (pH 7.4) (buffer A). The [^125I]-AB-MECA ([N(6)-(4-amino-3-iodobenzyl)-5′-N-methylcarbamoyl-adenosine]; 0.05 nM) binding assay was carried out in 96-well a plates in the presence of 20 μg of membrane protein and 0.1 U adenosine deaminase in a final volume of […] of buffer A. Non-specific binding was defined using xanthine amine congener (XAC; 2 μM). Compounds were tested at 10 concentrations from 10 μM-0.3 nM. All assays were conducted in duplicate and repeated at least two times. Assay plates were incubated for 1 hour at room temperature before filtration through Whatman Unifilter GF/C 96-well filter plates (preincubated with 0.3% polyethyleneimine). Filters were washed 3 times with 0.3 ml of cold (4° C.) Tris (50 mM)—NaC […]
[…] 1 (120 mM) buffer (pH 7.4). Microscint 40 scintillation fluid (50 μl) was added to each well and the wells sealed. After gentle shaking for 20 min, plates were counted on a Packard Topcount scintillation counter. IC50 values were calculated using a non-linear curve fitting program and Ki values calculated using the Cheng-Prussoff equation.
(§1) In accordance with the invention, it has been shown that compounds of formula I have a high affinity toward the A2A receptor. In Table I below specific values of prepared compounds are described, Values of KiHA2A and KiHA1 are shown in Table I for compounds of formula 1. A low Ki value is indicative of a particular compound's high affinity toward a particular receptor and conversely a higher Ki value is indicative of a lower affinity for that compound toward a particular receptor. […] Generally speaking, compounds that have a higher HA1/HA2A ratio are able to give a substantially complete blockade of the HA2A receptor without substantially affecting the A1 receptor.

The target in assay [2] is T2, human adenosine A1 receptor (Homo sapiens, UniProt P30542).
T2 construct: expressed in transfected cells; host or cells: CHO cells, semliki forest virus expression system; membrane preparation
T2 sequence (P30542 1-326): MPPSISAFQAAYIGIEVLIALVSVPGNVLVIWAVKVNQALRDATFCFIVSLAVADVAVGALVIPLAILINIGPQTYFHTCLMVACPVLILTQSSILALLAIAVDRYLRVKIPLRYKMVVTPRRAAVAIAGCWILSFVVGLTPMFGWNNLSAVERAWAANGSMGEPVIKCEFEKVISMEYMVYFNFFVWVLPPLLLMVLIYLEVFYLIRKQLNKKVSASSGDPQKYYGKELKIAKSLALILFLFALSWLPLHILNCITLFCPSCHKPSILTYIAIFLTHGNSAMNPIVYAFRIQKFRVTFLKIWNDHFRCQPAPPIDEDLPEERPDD
Briefly: Human adenosine A1 receptor radioligand binding assay ([3H]-DPCPX, SPA, CHO cell membranes). The settings on record: recombinant human A1 receptor expressed in CHO cells; [3H]-DPCPX 0.6 nM; Ki from IC50 by Cheng-Prussoff equation; read-out: hA1 Ki. How it is done:
Human Adenosine A^1 Receptor
The gene encoding human adenosinie A1 receptor was recombinantly introduced and expressed in chinese hamster ovary (CHO) cells using the semliki forest virus expression system. Cells were harvested, washed twice by centrifugation, homogenized and again washed by centrifugation. The final washed membrane pellet was suspended in a Tris (50 mM) buffer containing 120 mM NaCl, 5 mM KCl, 2 mM CaCl2 and 10 mM MgCl2 (pH 7.4) (buffer A). The [^3H]-DPCPX (([propyl-3H]8-cyclopentyl-1,3-dipropyxanthine); 0.6 nM) binding assay was carried out in 96-well plates in the presence of 2.5 μg of membrane protein, 0.5 mg of Ysi-poly-1-lysine SPA beads and 0.1 U adenosine deaminase in a final volume of 200 μl of buffer A. Non-specific binding was defined using xanthine amine congener (XAC; 2 μM). Compounds were tested at 10 concentrations from 10 μM-0.3 nM. All assays were conducted in duplicate and repeated at least two times. Assay plates were incubated for 1 hour at room temperature before centrifugation and then bound ligand determined using a Packard Topcount scintillation counter. IC50 values were calculated using a non-linear curve fitting program and Ki values calculated using the Cheng-Prussoff equation.
as §1

pKi: −log10 of the molar value.

T1 sequence (P29274 whole entry): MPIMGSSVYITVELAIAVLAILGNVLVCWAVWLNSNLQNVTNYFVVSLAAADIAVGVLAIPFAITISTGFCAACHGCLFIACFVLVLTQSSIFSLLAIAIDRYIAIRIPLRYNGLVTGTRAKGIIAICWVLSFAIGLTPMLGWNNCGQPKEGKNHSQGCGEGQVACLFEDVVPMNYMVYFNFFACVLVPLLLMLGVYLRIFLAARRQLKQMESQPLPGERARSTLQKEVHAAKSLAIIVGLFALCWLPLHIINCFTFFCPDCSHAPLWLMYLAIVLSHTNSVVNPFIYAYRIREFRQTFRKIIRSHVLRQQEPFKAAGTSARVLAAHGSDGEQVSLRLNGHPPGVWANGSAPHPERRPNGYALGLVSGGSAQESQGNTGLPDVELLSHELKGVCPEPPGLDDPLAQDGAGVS

Regarding `COc1ccc(-c2ccsc2)n2nc(NC(=O)c3ccc(C)s3)nc12` [Example 29, 5-Methyl-thiophene-2-carboxylic acid (8-methoxy-5-thiophen-3-yl-[1,2,4]triazolo[1,5-a]pyridin-2-yl)-amide], in assay [1], the “Selectivity A1/A2a” value was determined as 24.2 and the pKi is 7.15. The pKi in assay [2] was 5.76.
The matching figures for `CCOc1cccc(-c2ccc(OC)c3nc(NC(=O)c4ccc(C)s4)nn23)c1` [Example 30, 5-Methyl-thiophene-2-carboxylic acid [5-(3-ethoxy-phenyl)-8-methoxy-[1,2,4]triazolo[1,5-a]pyridin-2-yl]-amide]: 18.6, 7.14 and 5.87.
The matching figures for `COc1ccc(-c2ccc(Cl)s2)n2nc(NC(=O)c3ccc(C)s3)nc12` [Example 31, 5-Methyl-thiophene-2-carboxylic acid [5-(5-chloro-thiophen-2-yl)-8-methoxy-[1,2,4]triazolo[1,5-a]pyridin-2-yl]-amide]: 39.6, 7.53 and 5.93.
Take `COc1ccc(-c2ccccc2F)n2nc(NC(=O)c3ccc(F)cc3)nc12` [Example 32, 4-Fluoro-N-[5-(2-fluorophenyl)-8-methoxy-[1,2,4]triazolo[1,5-a]pyridin-2-yl]-benzamide]: in assay [1], the “Selectivity A1/A2a” value is recorded as 24.6 and the pKi was 6.64. Also, the pKi in assay [2] is 5.25.
The matching figures for `COc1ccc(-c2ccsc2)n2nc(NC(=O)c3ccc(F)cc3)nc12` [Example 33, 4-Fluoro-N-(8-methoxy-5-thiophen-3-yl-[1,2,4]triazolo[1,5-a]pyridin-2-yl)-benzamide]: 12.3, 6.72 and 5.63.
The matching figures for `CCOc1cccc(-c2ccc(OC)c3nc(NC(=O)c4ccc(F)cc4)nn23)c1` [Example 34, N-[5-(3-Ethoxy-phenyl)-8-methoxy-[1,2,4]triazolo[1,5-a]pyridin-2-yl]-4-fluoro-benzamide]: 11.2, 6.88 and 5.83.
The matching figures for `COc1ccc(-c2cccc(F)c2)n2nc(NC(=O)c3ccc(C)s3)nc12` [Example 35, 5-Methyl-thiophene-2-carboxylic acid [5-(3-fluoro-phenyl)-8-methoxy-[1,2,4]triazolo[1,5-a]pyridin-2-yl]-amide]: 10.6, 6.89 and 5.87.
